We go through 16 compounds from ChEMBL document CHEMBL1909046, “DrugMatrix in vitro pharmacology data”.

Each structure is given as a SMILES string.

One data set addresses Cytochrome P450 2E1 (Homo sapiens, UniProt P05181). The settings on record: bti-tn-5b1-4.
Another data set addresses T1, Cathepsin G (Homo sapiens, UniProt P08311).
T1 sequence (P08311 whole entry): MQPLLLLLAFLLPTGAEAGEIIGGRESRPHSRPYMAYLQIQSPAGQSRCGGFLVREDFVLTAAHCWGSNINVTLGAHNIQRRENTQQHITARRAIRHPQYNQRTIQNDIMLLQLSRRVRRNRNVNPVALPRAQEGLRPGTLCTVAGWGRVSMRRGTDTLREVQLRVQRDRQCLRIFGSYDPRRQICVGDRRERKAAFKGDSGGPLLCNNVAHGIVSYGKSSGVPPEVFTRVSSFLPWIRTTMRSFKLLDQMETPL
The format is tissue-based. The conditions noted are these: neutrophil.

The target in data set [1] is T2, Muscarinic acetylcholine receptor M2 (Homo sapiens, UniProt P08172). Note: in other assays of this panel Not Active means under 50% inhibition at 10 µM.
T2 sequence (P08172 whole entry): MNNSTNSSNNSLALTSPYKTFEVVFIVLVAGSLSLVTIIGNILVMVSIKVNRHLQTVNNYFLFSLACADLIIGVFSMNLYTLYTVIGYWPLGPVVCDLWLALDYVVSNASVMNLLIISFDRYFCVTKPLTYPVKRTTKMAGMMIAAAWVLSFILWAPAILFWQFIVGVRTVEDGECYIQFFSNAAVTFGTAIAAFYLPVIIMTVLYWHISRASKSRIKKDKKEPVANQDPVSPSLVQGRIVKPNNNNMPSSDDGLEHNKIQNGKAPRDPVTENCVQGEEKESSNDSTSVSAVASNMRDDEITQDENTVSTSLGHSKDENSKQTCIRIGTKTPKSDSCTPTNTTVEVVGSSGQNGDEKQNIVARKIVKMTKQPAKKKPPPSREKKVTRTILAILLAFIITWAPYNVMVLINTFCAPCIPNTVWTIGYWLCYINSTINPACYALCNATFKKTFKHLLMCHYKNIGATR
The format is cell membranes, CHO-K1, Membrane.

Data set [2] in a line: DRUGMATRIX: Potassium Channel [KATP] radioligand binding (ligand: [3H] Glyburide). The format is cell membranes, Membrane. The settings on record: hit-t15, Not Active = under 50% inhibition at 10 µM.
The next data set addresses T3, Cytochrome P450 2A6 (Homo sapiens, UniProt P11509).
T3 sequence (P11509 whole entry): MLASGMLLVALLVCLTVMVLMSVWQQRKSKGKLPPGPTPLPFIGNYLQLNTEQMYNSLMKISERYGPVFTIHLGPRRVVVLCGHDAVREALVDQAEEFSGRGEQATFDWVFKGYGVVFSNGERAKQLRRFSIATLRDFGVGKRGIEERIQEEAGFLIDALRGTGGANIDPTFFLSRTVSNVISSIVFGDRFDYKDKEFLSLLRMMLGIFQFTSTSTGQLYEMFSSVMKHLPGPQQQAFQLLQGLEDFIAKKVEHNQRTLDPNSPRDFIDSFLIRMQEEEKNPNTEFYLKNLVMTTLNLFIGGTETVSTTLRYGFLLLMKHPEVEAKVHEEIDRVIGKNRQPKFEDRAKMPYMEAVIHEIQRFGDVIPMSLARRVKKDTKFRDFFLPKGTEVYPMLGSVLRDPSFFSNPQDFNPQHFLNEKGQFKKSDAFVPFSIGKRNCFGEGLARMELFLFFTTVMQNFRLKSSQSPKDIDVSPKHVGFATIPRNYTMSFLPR
The conditions noted are these: bti-tn-5b1-4.

The target in data set [3] is T4, Muscarinic acetylcholine receptor M4 (Homo sapiens, UniProt P08173). Note: in other assays of this panel Not Active means under 50% inhibition at 10 µM.
T4 sequence (P08173 whole entry): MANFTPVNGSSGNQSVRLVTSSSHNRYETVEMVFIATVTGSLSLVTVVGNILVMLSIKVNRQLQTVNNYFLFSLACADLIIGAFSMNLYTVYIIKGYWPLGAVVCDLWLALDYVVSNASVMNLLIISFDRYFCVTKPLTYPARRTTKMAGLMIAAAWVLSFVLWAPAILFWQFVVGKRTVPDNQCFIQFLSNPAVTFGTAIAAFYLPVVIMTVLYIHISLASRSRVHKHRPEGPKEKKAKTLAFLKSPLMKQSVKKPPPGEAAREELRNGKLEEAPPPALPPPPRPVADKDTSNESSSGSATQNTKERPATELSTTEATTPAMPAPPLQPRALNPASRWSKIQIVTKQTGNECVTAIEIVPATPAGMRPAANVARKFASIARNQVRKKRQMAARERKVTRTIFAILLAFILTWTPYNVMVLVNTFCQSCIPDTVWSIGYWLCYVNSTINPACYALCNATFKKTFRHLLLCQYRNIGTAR
The format is cell membranes, CHO-K1, Membrane. The settings on record: cho-k1.

The nature of data set [4]: DRUGMATRIX: Interleukin IL-1 radioligand binding (ligand: [125I] interleukin 1beta). Format: cell membranes, Membrane. The conditions noted are these: nih3t3; Not Active = under 50% inhibition at 10 µM.

Cytochrome P450 2E1, sequence (P05181 whole entry): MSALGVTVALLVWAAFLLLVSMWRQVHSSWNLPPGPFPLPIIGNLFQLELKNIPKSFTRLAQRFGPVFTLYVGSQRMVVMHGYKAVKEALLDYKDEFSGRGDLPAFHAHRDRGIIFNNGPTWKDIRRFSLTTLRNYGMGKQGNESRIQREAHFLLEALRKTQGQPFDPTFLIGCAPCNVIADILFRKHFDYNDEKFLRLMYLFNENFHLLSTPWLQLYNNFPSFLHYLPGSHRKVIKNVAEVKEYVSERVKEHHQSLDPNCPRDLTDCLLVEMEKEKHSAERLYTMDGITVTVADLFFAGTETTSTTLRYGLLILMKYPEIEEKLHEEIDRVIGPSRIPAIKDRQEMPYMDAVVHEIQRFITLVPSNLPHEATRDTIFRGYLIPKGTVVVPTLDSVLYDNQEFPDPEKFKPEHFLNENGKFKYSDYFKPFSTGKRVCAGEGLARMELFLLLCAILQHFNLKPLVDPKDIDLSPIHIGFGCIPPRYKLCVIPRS

Take `Nn1nnc2ccccc21`: the IC50 entry (at Cytochrome P450 2E1; against Cathepsin G; in data set [1] (cho-k1); in data set [2]; at Cytochrome P450 2A6; in data set [3]) was “Not Active” each time. Also, in data set [4], the half-maximal inhibitory concentration (IC50) entry was “Not Active”. In addition, the Ki result (at Cytochrome P450 2E1; in data set [2]; on Cytochrome P450 2A6; in data set [4]) was “Not Active” in each case.
In the case of `CC[C@]1(O)CC[C@H]2[C@@H]3CCC4=CCCC[C@@H]4[C@H]3CC[C@@]21C`, the IC50 result against Cytochrome P450 2E1 is “Not Active”; on Cathepsin G, “Not Active”; in data set [1] (read-out: IC50) it was 292 nM; in data set [2], “Not Active”; against Cytochrome P450 2A6, “Not Active”; in data set [3], “Not Active”. The IC50 result in data set [4] is “Not Active”. Moreover, the Ki result is “Not Active” at Cytochrome P450 2E1; 104 nM in data set [1] (read-out: Ki); “Not Active” in data set [2]; “Not Active” at Cytochrome P450 2A6; “Not Active” in data set [4].
As for `N[C@@H](Cc1ccc(F)cc1)C(=O)O`, the IC50 result (against Cathepsin G; in data set [1] (cho-k1); in data set [2]; in data set [3]; in data set [4]) was “Not Active” each time. Besides, the Ki result in data set [2] and in data set [4] was “Not Active” throughout.
With `CCOC(=O)[C@H](CCc1ccccc1)N[C@@H](C)C(=O)N1Cc2ccccc2C[C@H]1C(=O)O`, the concentration for half-maximal inhibition (IC50) entry (at Cytochrome P450 2E1; at Cathepsin G; in data set [1] (cho-k1); in data set [2]; against Cytochrome P450 2A6; in data set [3]) was “Not Active” each time. Moreover, the half-maximal inhibitory concentration (IC50) result in data set [4] is on record as “Not Active”. Moreover, the inhibition constant Ki result (on Cytochrome P450 2E1; in data set [2]; at Cytochrome P450 2A6; in data set [4]) was “Not Active” throughout.
For `O=C(c1ccccc1Cl)N1CCC(Cc2ccccc2)CC1`, the half-maximal inhibitory concentration (IC50) result (against Cytochrome P450 2E1; against Cathepsin G; in data set [1] (cho-k1); in data set [2]; at Cytochrome P450 2A6; in data set [3]) was “Not Active” each time. For the same compound, the IC50 entry in data set [4] is “Not Active”. In addition, the Ki entry (at Cytochrome P450 2E1; in data set [2]; on Cytochrome P450 2A6; in data set [4]) was “Not Active” throughout.
With `CCOC(=O)[C@H](CCc1ccccc1)N[C@@H](C)C(=O)N1CCC[C@H]1C(=O)O`, the IC50 entry (at Cytochrome P450 2E1; at Cathepsin G; in data set [1] (cho-k1); in data set [2]; against Cytochrome P450 2A6; in data set [3]) was “Not Active” each time. Besides, the IC50 result in data set [4] is recorded as “Not Active”. Besides, the inhibitory constant (Ki) entry (on Cytochrome P450 2E1; in data set [2]; at Cytochrome P450 2A6; in data set [4]) was “Not Active” throughout.
Turning to `Clc1cc2c(cc1Cl)Oc1cc(Cl)c(Cl)cc1O2` [2,3,7,8-TETRACHLORODIBENZO-P-DIOXIN], the IC50 entry (against Cytochrome P450 2E1; against Cathepsin G; in data set [1] (cho-k1); in data set [2]; against Cytochrome P450 2A6; in data set [3]) was “Not Active” in each case. Also, the IC50 result in data set [4] is given as “Not Active”. The Ki entry (on Cytochrome P450 2E1; in data set [2]; on Cytochrome P450 2A6; in data set [4]) was “Not Active” each time.
Consider `C=C1/C(=C\C=C2/CCC[C@]3(C)[C@@H]([C@H](C)CCCC(C)C)CC[C@@H]23)C[C@@H](O)C[C@@H]1O` [ALFACALCIDOL], for which the IC50 entry (against Cytochrome P450 2E1; against Cathepsin G; in data set [1] (cho-k1); in data set [2]; against Cytochrome P450 2A6; in data set [3]) was “Not Active” each time. The half-maximal inhibitory concentration (IC50) result in data set [4] is reported as “Not Active”. The inhibition constant Ki result (on Cytochrome P450 2E1; in data set [2]; on Cytochrome P450 2A6; in data set [4]) was “Not Active” in each case.
Turning to `CCCCCC[C@H]1C(=O)O[C@H](C)[C@H](NC(=O)c2cccc(NC=O)c2O)C(=O)O[C@@H](C)[C@@H]1OC(=O)CC(C)C` [ANTIMYCIN A], the concentration for half-maximal inhibition (IC50) entry (against Cytochrome P450 2E1; against Cathepsin G; in data set [1] (cho-k1); in data set [2]; against Cytochrome P450 2A6; in data set [3]) was “Not Active” throughout. Besides, the IC50 result in data set [4] is “Not Active”. In addition, the Ki result (on Cytochrome P450 2E1; in data set [2]; at Cytochrome P450 2A6; in data set [4]) was “Not Active” each time.
With `C[C@@H]1CC[C@H]2[C@@H](C)C(=O)O[C@@H]3O[C@@]4(C)CC[C@@H]1[C@]32OO4` [ARTEMISININ], the concentration for half-maximal inhibition (IC50) entry (on Cathepsin G; in data set [1] (cho-k1); in data set [2]; in data set [3]; in data set [4]) was “Not Active” each time. Further, the inhibitory constant (Ki) result in data set [2] and in data set [4] was “Not Active” each time.
As to `CCC[C@@H]1C[C@@H](C(=O)N[C@@H]([C@H]2O[C@H](SC)[C@H](O)[C@@H](O)[C@H]2O)[C@H](C)Cl)N(C)C1` [CLINDAMYCIN], the IC50 result (against Cathepsin G; in data set [1] (cho-k1); in data set [2]; in data set [3]; in data set [4]) was “Not Active” in each case. Moreover, the inhibitory constant (Ki) entry in data set [2] and in data set [4] was “Not Active” each time.
Consider `Cc1cn[nH]c1` [FOMEPIZOLE], for which the concentration for half-maximal inhibition (IC50) result (against Cathepsin G; in data set [1] (cho-k1); in data set [2]; in data set [3]; in data set [4]) was “Not Active” throughout. Moreover, the Ki entry in data set [2] and in data set [4] was “Not Active” in each case.
Consider `Cc1cnc(C(=O)NCCc2ccc(S(=O)(=O)NC(=O)NC3CCCCC3)cc2)cn1` [GLIPIZIDE], for which the IC50 entry against Cathepsin G is “Not Active”; in data set [1] (cho-k1) it was “Not Active”; in data set [2] (read-out: IC50), 398 nM; in data set [3] it was “Not Active”; in data set [4], “Not Active”. Moreover, the Ki is 45 nM in data set [2] (read-out: Ki) and “Not Active” in data set [4].
Consider `COc1ccccc1OCC(O)CO` (configuration not stated) [GUAIFENESIN], for which the IC50 entry (on Cathepsin G; in data set [1] (cho-k1); in data set [2]; in data set [3]; in data set [4]) was “Not Active” in each case. The Ki result in data set [2] and in data set [4] was “Not Active” throughout.
Consider `C/C=C\c1ccc(O)c(OC)c1` [ISOEUGENOL], for which the 50% inhibitory concentration (IC50) entry (on Cathepsin G; in data set [1] (cho-k1); in data set [2]; in data set [3]; in data set [4]) was “Not Active” throughout. In addition, the inhibition constant (Ki) entry in data set [2] and in data set [4] was “Not Active” in each case.
Regarding `CC[C@H](C)C(=O)O[C@H]1C[C@@H](C)C=C2C=C[C@H](C)[C@H](CC[C@@H]3C[C@@H](O)CC(=O)O3)[C@H]21` [LOVASTATIN], the concentration for half-maximal inhibition (IC50) result (on Cytochrome P450 2E1; against Cathepsin G; in data set [1] (cho-k1); at Cytochrome P450 2A6; in data set [3]; in data set [4]) was “Not Active” throughout. Moreover, the inhibition constant Ki result (on Cytochrome P450 2E1; at Cytochrome P450 2A6; in data set [4]) was “Not Active” each time.
